Test [1] has as its target T1, w.t. NRAS/RAF1 (Homo sapiens, UniProt P01111).
T1 construct: His6-SUMO (N, cleaved yes); made in house; host or cells: E. coli (printed for KRAS and RAF1)
Briefly: Protein-protein interaction (PPI) HTRF assay NRAS/RAF1. Format: binding. As to conditions: Table 3; wtNRAS/RAF1. How it is done: (§1) Biotinylated KRAS wt and KRAS G12DNV proteins were expressed and purified in conditions similar to those previously reported (Tran, et al., 2021) (Zhang, et al., 2020). Briefly, KRAS (1-169) proteins were expressed in E. coli at 18° C. with an upstream TEV cleavage site (ENLFYQS (SEQ ID NO: 6)) followed an Avi tag sequence ([…] (SEQ ID NO: 7)). KRAS expression constructs contained both a His6 (SEQ ID NO: 8) and maltose-binding protein (MBP) tags at the N-terminus for Ni-NTA column purification prior to overnight TEV cleavage and MBP column purification. The avi-tagged NRAS expression construct contained both a His6 tag (SEQ ID NO: 8) and SUMO cleavage sige at the N-terminus for Ni-NTA column purification followed by His-ULPi digestion overnight. […]
(§2) When RAS proteins are in the active GTP-bound conformation, they bind the effector protein RAF1 at the N-terminus Ras-binding domain (RBD, residues 52-131) (Tran, et al., 2021). Homogenous time resolved fluorescence (HTRF) was used to monitor the interaction between wt or mutant KRAS and RAF1 or wt NRAS and RAFT. […] The intensity of the fluorescence signal emitted is proportional to binding between the two proteins. […] The fluorescence signal emitted was monitored at 665 nm and 615 nm using an Envision multimode plate reader. […]

In test [2] the target is T2, w.t.KRAS/RAF1 (Homo sapiens, UniProt P01116).
T2 construct: His6-MBP (N, cleaved yes); made in house; host or cells: E. coli
T2 sequence (P01116 with tags, fused parts or gaps isoform P01116-2): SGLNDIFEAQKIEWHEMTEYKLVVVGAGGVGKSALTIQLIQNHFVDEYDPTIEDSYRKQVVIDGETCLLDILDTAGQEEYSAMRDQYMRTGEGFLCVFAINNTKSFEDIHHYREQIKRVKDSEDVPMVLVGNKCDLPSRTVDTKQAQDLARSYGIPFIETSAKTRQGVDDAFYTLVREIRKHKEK
Briefly: Protein-protein interaction (PPI) HTRF assay w.t.KRAS/RAF1. Format: binding. As to conditions: Table 3; wtKRAS/RAF1. How it is done:
as §1, §2
(In general: In TR-FRET formats the signal depends on donor and acceptor labels being close together.)

In patent US12145947B2, “Pyrimidine based modulators and uses thereof” (Quanta Therapeutics, Inc., priority 2022, dated 2024) one finds IC50 data, which are given here for two compounds.

pIC50: −log10 of the molar value. Some results are limits rather than exact numbers.

T1 sequence (P01111 with tags, fused parts or gaps): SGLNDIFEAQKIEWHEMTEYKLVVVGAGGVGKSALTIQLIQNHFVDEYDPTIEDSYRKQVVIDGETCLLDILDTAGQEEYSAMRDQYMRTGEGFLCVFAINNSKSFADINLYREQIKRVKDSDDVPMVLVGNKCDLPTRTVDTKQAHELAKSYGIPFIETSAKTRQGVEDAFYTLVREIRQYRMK

As to `CN(C)C(=O)c1nn2c(c1Cl)CN(c1nc(OC[C@@]34CCCN3C[C@H](F)C4)nc(N3CC4(CCCc5sc(N)c(C#N)c54)C3)c1C#N)CCC2` [Compound 3, 5-[6-(2-amino-3-cyano-spiro[6,7-dihydro-5H-benzothiophene-4,3′-azetidine]-1′-yl)-5-cyano-2-[[(2R,8S)-2-fluoro-1,2,3,5,6,7-hexahydropyrrolizin-8-yl]methoxy]pyrimidin-4-yl]-3-chloro-N,N-dimethyl-4,6,7,8-tetrahydropyrazolo[1,5-a][1,4]diazepine-2-carboxamide], in test [1], the pIC50 is < 4.00.
`CN(C)C(=O)c1nn2c(c1Cl)CN(c1nc(OC[C@@]34CCCN3C[C@H](F)C4)nc(N3CC4(CCc5sc(N)c(C#N)c54)C3)c1C#N)CCC2` [Compound 2, 5-[6-(2-amino-3-cyano-spiro[5,6-dihydrocyclopenta[b]thiophene-4,3′-azetidine]-1′-yl)-5-cyano-2-[[(2R,8S)-2-fluoro-1,2,3,5,6,7-hexahydropyrrolizin-8-yl]methoxy]pyrimidin-4-yl]-3-chloro-N,N-dimethyl-4,6,7,8-tetrahydropyrazolo[1,5-a][1,4]diazepine-2-carboxamide]: the pIC50 was 5.00 to 6.00 in test [2] and < 4.00 in test [1].

Usually pIC50 stands for −log10 of the IC50, conventionally taken in molar units. High values mean a low IC50, low ones a high IC50.
